± gives the expanded uncertainty stated by the source.
Columns and labels:
[1] = wn = mass fraction of the nth substance listed; conditions: 100 kPa, Liquid; for electrical conductivity: Alternating current cell with electrodes; for viscosity: Capillary tube (Ostwald / Ubbelohde) method; for mass density: Vibrating tube method
[2] = refractive index (Na D-line) (dimensionless); wn = mass fraction of the nth substance listed; conditions: 100 kPa, Liquid, Standard Abbe refractometry

O=S(=O)([O-])[O-].[Cu+2] [copper sulfate] + O
Conditions	electrical conductivity, [1] [S/m]	mass density, [1] [kg/m3]	refractive index, [2]	viscosity, [1] [mPa·s]
288.15 K, w1 = 0.0101	0.492 ± 0.073	1009.6 ± 0.33	1.3353 ± 0.0004	1.188 ± 0.11
288.15 K, w1 = 0.0202	0.851 ± 0.073	1019.98 ± 0.33	1.3372 ± 0.0004	1.263 ± 0.11
288.15 K, w1 = 0.0305	1.17 ± 0.073	1030.49 ± 0.33	1.3391 ± 0.0004	1.344 ± 0.11
288.15 K, w1 = 0.0409	1.47 ± 0.074	1041.68 ± 0.33	1.3411 ± 0.0004	1.371 ± 0.11
288.15 K, w1 = 0.0514	1.76 ± 0.15	1052.54 ± 0.33	1.3429 ± 0.0004	1.404 ± 0.11
288.15 K, w1 = 0.0621	2.03 ± 0.15	1063.7 ± 0.34	1.3449 ± 0.0004	1.472 ± 0.11
288.15 K, w1 = 0.0729	2.29 ± 0.15	1074.95 ± 0.34	1.3469 ± 0.0004	1.591 ± 0.11
288.15 K, w1 = 0.0838	2.54 ± 0.15	1086.38 ± 0.34	1.3488 ± 0.0004	1.649 ± 0.11
288.15 K, w1 = 0.0948	2.77 ± 0.15	1098.22 ± 0.34	1.3508 ± 0.0004	1.744 ± 0.11
293.15 K, w1 = 0.0101	0.548 ± 0.073	1008.63 ± 0.33	1.3348 ± 0.0004	1.083 ± 0.11
293.15 K, w1 = 0.0202	0.943 ± 0.073	1019.09 ± 0.33	1.3367 ± 0.0004	1.132 ± 0.11
293.15 K, w1 = 0.0305	1.31 ± 0.073	1029.38 ± 0.33	1.3384 ± 0.0004	1.191 ± 0.11
293.15 K, w1 = 0.0409	1.63 ± 0.074	1040.53 ± 0.34	1.3405 ± 0.0004	1.199 ± 0.11
293.15 K, w1 = 0.0514	1.96 ± 0.15	1051.49 ± 0.33	1.3424 ± 0.0004	1.273 ± 0.11
293.15 K, w1 = 0.0621	2.26 ± 0.15	1062.26 ± 0.33	1.3444 ± 0.0004	1.31 ± 0.11
293.15 K, w1 = 0.0729	2.55 ± 0.15	1073.67 ± 0.34	1.3463 ± 0.0004	1.393 ± 0.11
293.15 K, w1 = 0.0838	2.82 ± 0.15	1084.84 ± 0.34	1.3483 ± 0.0004	1.452 ± 0.11
293.15 K, w1 = 0.0948	3.09 ± 0.15	1096.44 ± 0.34	1.3504 ± 0.0004	1.528 ± 0.11
298.15 K, w1 = 0.0101	0.61 ± 0.074	1007.43 ± 0.33	1.3343 ± 0.0004	0.937 ± 0.048
298.15 K, w1 = 0.0202	1.05 ± 0.074	1017.84 ± 0.33	1.3362 ± 0.0004	1.001 ± 0.048
298.15 K, w1 = 0.0305	1.45 ± 0.074	1028.06 ± 0.33	1.3379 ± 0.0004	1.018 ± 0.11
298.15 K, w1 = 0.0409	1.83 ± 0.15	1039 ± 0.33	1.34 ± 0.0004	1.068 ± 0.11
298.15 K, w1 = 0.0514	2.18 ± 0.15	1049.67 ± 0.33	1.3418 ± 0.0004	1.123 ± 0.11
298.15 K, w1 = 0.0621	2.52 ± 0.15	1060.66 ± 0.34	1.3437 ± 0.0004	1.142 ± 0.11
298.15 K, w1 = 0.0729	2.84 ± 0.15	1071.85 ± 0.34	1.3456 ± 0.0004	1.227 ± 0.11
298.15 K, w1 = 0.0838	3.16 ± 0.15	1083.16 ± 0.34	1.3476 ± 0.0004	1.288 ± 0.11
298.15 K, w1 = 0.0948	3.44 ± 0.15	1094.5 ± 0.34	1.3495 ± 0.0004	1.36 ± 0.11
303.15 K, w1 = 0.0101	0.664 ± 0.074	1005.98 ± 0.33	1.3338 ± 0.0004	0.835 ± 0.048
303.15 K, w1 = 0.0202	1.14 ± 0.074	1016.35 ± 0.33	1.3356 ± 0.0004	0.892 ± 0.048
303.15 K, w1 = 0.0305	1.59 ± 0.074	1026.77 ± 0.33	1.3373 ± 0.0004	0.918 ± 0.048
303.15 K, w1 = 0.0409	2 ± 0.15	1037.41 ± 0.33	1.3392 ± 0.0004	0.952 ± 0.048
303.15 K, w1 = 0.0514	2.38 ± 0.15	1048.04 ± 0.33	1.3411 ± 0.0004	1.014 ± 0.11
303.15 K, w1 = 0.0621	2.75 ± 0.15	1058.96 ± 0.34	1.343 ± 0.0004	1.029 ± 0.11
303.15 K, w1 = 0.0729	3.1 ± 0.15	1070.1 ± 0.34	1.3449 ± 0.0004	1.098 ± 0.11
303.15 K, w1 = 0.0838	3.44 ± 0.15	1081.38 ± 0.34	1.3468 ± 0.0004	1.122 ± 0.11
303.15 K, w1 = 0.0948	3.76 ± 0.15	1092.64 ± 0.34	1.3488 ± 0.0004	1.203 ± 0.11
308.15 K, w1 = 0.0101	0.719 ± 0.074	1004.32 ± 0.33	1.3331 ± 0.0004	0.758 ± 0.048
308.15 K, w1 = 0.0202	1.24 ± 0.074	1014.65 ± 0.33	1.3349 ± 0.0004	0.8 ± 0.048
308.15 K, w1 = 0.0305	1.72 ± 0.15	1024.97 ± 0.33	1.3367 ± 0.0004	0.835 ± 0.048
308.15 K, w1 = 0.0409	2.16 ± 0.15	1035.64 ± 0.33	1.3387 ± 0.0004	0.857 ± 0.048
308.15 K, w1 = 0.0514	2.57 ± 0.15	1046.35 ± 0.33	1.3405 ± 0.0004	0.883 ± 0.048
308.15 K, w1 = 0.0621	2.97 ± 0.15	1057.16 ± 0.33	1.3426 ± 0.0004	0.948 ± 0.048
308.15 K, w1 = 0.0729	3.36 ± 0.15	1068.13 ± 0.34	1.3445 ± 0.0004	0.99 ± 0.048
308.15 K, w1 = 0.0838	3.74 ± 0.15	1078.76 ± 0.34	1.3463 ± 0.0004	1.022 ± 0.11
308.15 K, w1 = 0.0948	4.09 ± 0.15	1091.27 ± 0.35	1.3481 ± 0.0004	1.089 ± 0.11

— the NIST ThermoML archive (doi:10.1007/s10765-016-2089-2)
